PubChem BioAssay AID1963867 (Molecular Pharmacology Branch, DTP, NCI, 2024)

Test system: KRAS-mutant PDC tumor spheroid with HUVEC/MSC, viability
Assay: Anticancer human tumor 327498-153-R-J2-PDC patient-derived uterine carcinosarcoma cell line growth inhibition [KRAS2]
Conditions: for IC50: curve of first compound; for viability, T/C: stronger effect = lower value
Procedure, shortened: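 Combination screen of spheroid viability in tumor-cell co-cultures with endothelial (HUVEC) and mesenchymal stem cell stroma. Each agent was tested in half-log dilutions, topping at clinical Cmax or at 10 microM without a known Cmax.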

[1] = second compound 0.1 µM, first compound 0.0316 µM
[2] = second compound 0.1 µM, first compound 0.1 µM
[3] = second compound 0.316 µM, first compound 0.0316 µM
[4] = second compound 0.316 µM, first compound 0.1 µM
[5] = second compound 1 µM, first compound 0.0316 µM
[6] = second compound 1 µM, first compound 0.1 µM
[7] = second compound 3.16 µM, first compound 0.0316 µM
[8] = second compound 3.16 µM, first compound 0.1 µM
[9] = second compound 10 µM, first compound 0.0316 µM
[10] = second compound 10 µM, first compound 0.1 µM
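Also: spheroids exposed to agents for seven days before reading.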
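For viability, T/C in this document: 100% = DMSO vehicle wells so lower means fewer viable cells.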

Q: For `CC(C)NCC(C(=O)N1CCN(c2ncnc3c2C(C)CC3O)CC1)c1ccc(Cl)cc1` (stereo not given) + CC1OCC2(CCN(c3cnc(Sc4ccnc(N)c4Cl)c(N)n3)CC2)C1N, which IC50 (second compound 0.1 µM) is on record?
A: 105 nM

Q: What about the IC50 (second compound 0.316 µM) of the same compound?
A: < 31.6 nM

Q: And the IC50 (second compound 1 µM)?
A: < 31.6 nM

Q: And the IC50 (second compound 3.16 µM)?
A: < 31.6 nM

Q: And the IC50 (second compound 10 µM)?
A: < 31.6 nM

Q: And the viability, T/C [1]?
A: 59.3%

Q: What about the viability, T/C [2] of the same compound?
A: 52.5%

Q: And the viability, T/C (second compound 0.1 µM, first compound 0.316 µM)?
A: 32.5%

Q: What about the viability, T/C (second compound 0.1 µM, first compound 1 µM) of the same compound?
A: 22.5%

Q: What about the viability, T/C (second compound 0.1 µM, first compound 3.16 µM) of the same compound?
A: 16.5%

Q: And the viability, T/C (second compound 0.1 µM, first compound 10 µM)?
A: 11.9%

Q: What about the viability, T/C [3] of the same compound?
A: 43.1%

Q: And the viability, T/C [4]?
A: 33%

Q: What about the viability, T/C (second compound 0.316 µM, first compound 0.316 µM) of the same compound?
A: 16.4%

Q: What about the viability, T/C (second compound 0.316 µM, first compound 1 µM) of the same compound?
A: 13.8%

Q: What about the viability, T/C (second compound 0.316 µM, first compound 3.16 µM) of the same compound?
A: 10.8%

Q: And the viability, T/C (second compound 0.316 µM, first compound 10 µM)?
A: 7.02%

Q: And the viability, T/C [5]?
A: 29.1%

Q: What about the viability, T/C [6] of the same compound?
A: 20.7%

Q: And the viability, T/C (second compound 1 µM, first compound 0.316 µM)?
A: 14.5%

Q: And the viability, T/C (second compound 1 µM, first compound 1 µM)?
A: 8.77%

Q: What about the viability, T/C (second compound 1 µM, first compound 3.16 µM) of the same compound?
A: 7.91%

Q: And the viability, T/C (second compound 1 µM, first compound 10 µM)?
A: 5.17%

Q: And the viability, T/C [7]?
A: 20.9%

Q: What about the viability, T/C [8] of the same compound?
A: 15.3%

Q: What about the viability, T/C (second compound 3.16 µM, first compound 0.316 µM) of the same compound?
A: 9.04%

Q: And the viability, T/C (second compound 3.16 µM, first compound 1 µM)?
A: 6.16%

Q: And the viability, T/C (second compound 3.16 µM, first compound 3.16 µM)?
A: 5.92%

Q: What about the viability, T/C (second compound 3.16 µM, first compound 10 µM) of the same compound?
A: 4.91%

Q: And the viability, T/C [9]?
A: 16.4%

Q: And the viability, T/C [10]?
A: 12.2%

Q: What about the viability, T/C (second compound 10 µM, first compound 0.316 µM) of the same compound?
A: 9.27%

Q: What about the viability, T/C (second compound 10 µM, first compound 1 µM) of the same compound?
A: 6.34%

Q: And the viability, T/C (second compound 10 µM, first compound 3.16 µM)?
A: 4.8%

Q: And the viability, T/C (second compound 10 µM, first compound 10 µM)?
A: 3.45%

Q: Which IC50 (second compound 0.1 µM) does the source give for `Cn1ncnc1[C@H]1c2n[nH]c(=O)c3cc(F)cc(c23)N[C@@H]1c1ccc(F)cc1` + CC1OCC2(CCN(c3cnc(Sc4ccnc(N)c4Cl)c(N)n3)CC2)C1N here?
A: 10.9 nM

Q: What about the IC50 (second compound 0.316 µM) of the same compound?
A: 1.14 nM

Q: And the IC50 (second compound 1 µM)?
A: < 0.316 nM

Q: What about the IC50 (second compound 3.16 µM) of the same compound?
A: < 0.316 nM

Q: And the IC50 (second compound 10 µM)?
A: < 0.316 nM

Q: And the viability, T/C (second compound 0.1 µM, first compound 0.000316 µM)?
A: 71.8%

Q: And the viability, T/C (second compound 0.1 µM, first compound 0.001 µM)?
A: 68.1%

Q: What about the viability, T/C (second compound 0.1 µM, first compound 0.00316 µM) of the same compound?
A: 59.4%

Q: And the viability, T/C (second compound 0.1 µM, first compound 0.01 µM)?
A: 55.2%

Q: What about the viability, T/C [1] of the same compound?
A: 31.4%

Q: And the viability, T/C [2]?
A: 18%

Q: What about the viability, T/C (second compound 0.316 µM, first compound 0.000316 µM) of the same compound?
A: 58%

Q: And the viability, T/C (second compound 0.316 µM, first compound 0.001 µM)?
A: 51.1%

Q: What about the viability, T/C (second compound 0.316 µM, first compound 0.00316 µM) of the same compound?
A: 40.7%

Q: And the viability, T/C (second compound 0.316 µM, first compound 0.01 µM)?
A: 38.2%

Q: And the viability, T/C [3]?
A: 23.3%

Q: What about the viability, T/C [4] of the same compound?
A: 15.6%

Q: What about the viability, T/C (second compound 1 µM, first compound 0.000316 µM) of the same compound?
A: 45.5%

Q: What about the viability, T/C (second compound 1 µM, first compound 0.001 µM) of the same compound?
A: 37.2%

Q: And the viability, T/C (second compound 1 µM, first compound 0.00316 µM)?
A: 26.6%

Q: What about the viability, T/C (second compound 1 µM, first compound 0.01 µM) of the same compound?
A: 21.4%

Q: What about the viability, T/C [5] of the same compound?
A: 15.6%

Q: What about the viability, T/C [6] of the same compound?
A: 13.2%

Q: What about the viability, T/C (second compound 3.16 µM, first compound 0.000316 µM) of the same compound?
A: 30%

Q: What about the viability, T/C (second compound 3.16 µM, first compound 0.001 µM) of the same compound?
A: 32.2%

Q: What about the viability, T/C (second compound 3.16 µM, first compound 0.00316 µM) of the same compound?
A: 25%

Q: And the viability, T/C (second compound 3.16 µM, first compound 0.01 µM)?
A: 19.2%

Q: What about the viability, T/C [7] of the same compound?
A: 11.2%

Q: What about the viability, T/C [8] of the same compound?
A: 9.64%

Q: What about the viability, T/C (second compound 10 µM, first compound 0.000316 µM) of the same compound?
A: 29.5%

Q: And the viability, T/C (second compound 10 µM, first compound 0.001 µM)?
A: 27.1%

Q: And the viability, T/C (second compound 10 µM, first compound 0.00316 µM)?
A: 21.9%

Q: What about the viability, T/C (second compound 10 µM, first compound 0.01 µM) of the same compound?
A: 15.5%

Q: What about the viability, T/C [9] of the same compound?
A: 12.4%

Q: And the viability, T/C [10]?
A: 8.58%
